# Test results from patent US9255101B2 (BIOPROJECT, priority 2012, dated 2016).
# Structures can show the parent of a compound that is named as a salt.
# Target: human H4 receptor (Homo sapiens, UniProt Q9H3N8)
# Assay: biochemical
# 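Further: radioligand displacement of a [3H]-labelled ligand from membranes of CHO cells stably expressing human H4 receptor, bound radioactivity counted on filters by liquid scintillation.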
row,SMILES,Ki
1,"CN1CCC(OC2c3ccccc3CCn3cc(-c4ccc(N(C)C)cc4)nc32)CC1 (stereo not drawn) [Example 35, dimethyl-{4-[4-(1-methylpiperidin-4-yloxy)-9,10-dihydro-4H-3,10a-diaza-benzo[f]azulen-2-yl]-phenyl}-amine oxalate]",< 1000 nM
2,"Cc1ccc(-c2cn3c(n2)C(OC2CCN(C)CC2)c2ccccc2CC3)o1 (stereo not drawn) [Example 51, 2-(5-methylfuran-2-yl)-4-(1-methylpiperidin-4-yloxy)-9,10-dihydro-4H-3,10a-diaza-benzo[f]azulene oxalate]",< 300 nM
3,"CN1CCC(OC2c3ccccc3CCn3cc(-c4ccc(CCO)cc4)nc32)CC1 (stereo not drawn) [Example 192, 2-{4-[4-(1-methylpiperidin-4-yloxy)-9,10-dihydro-4H-3,10a-diaza-benzo[f]azulen-2-yl]-phenyl}-ethanol]",< 300 nM
4,"CNc1ccc(-c2cn3c(n2)C(OC2CCN(C)CC2)c2ccccc2CC3)cc1 (stereo not drawn) [Example 100, methyl-{4-[4-(1-methylpiperidin-4-yloxy)-9,10-dihydro-4H-3,10a-diaza-benzo[f]azulen-2-yl]-phenyl}-amine oxalate]",< 1000 nM
5,"CN1CCC(OC2c3ccccc3CCn3cc(-c4ccncc4)nc32)CC1 (stereo not drawn) [Example 44, 4-(1-methylpiperidin-4-yloxy)-2-pyridin-4-yl-9,10-dihydro-4H-3,10a-diaza-benzo[f]azulene oxalate]",< 1000 nM
6,"CCOC(=O)c1nc2n(c1C)CCc1ccccc1C2OC1CCN(C)CC1 (stereo not drawn) [Example 118, 1-methyl-4-(1-methylpiperidin-4-yloxy)-9,10-dihydro-4H-3,10a-diaza-benzo[f]azulene-2-carboxylic acid ethyl ester]",< 1000 nM
7,"CN1C2CCC1CC(OC1c3ccccc3CCn3c1nc(I)c3I)C2 (stereo not drawn) [Example 269, 1,2-diiodo-4-(8-methyl-8-aza-bicyclo[3.2.1]oct-3-yloxy)-9,10-dihydro-4H-3,10a-diaza-benzo[f]azulene]",< 1000 nM

# The next lines start with the values.
row,Ki,SMILES
1,< 300 nM,"CN1CCC(OC2c3ccccc3CCn3cc(-c4ccccc4CO)nc32)CC1 (stereo not drawn) [Example 179, {2-[4-(1-methylpiperidin-4-yloxy)-9,10-dihydro-4H-3,10a-diaza-benzo[f]azulen-2-yl]-phenyl}-methanol oxalate]"
2,< 300 nM,"CN1CCC(OC2c3cccc(Cl)c3CCn3cc(-c4ccccc4)nc32)CC1 (stereo not drawn) [Example 91, 8-chloro-4-(1-methylpiperidin-4-yloxy)-2-phenyl-9,10-dihydro-4H-3,10a-diaza-benzo[f]azulene]"
3,< 300 nM,"CN1CCC(OC2c3ccccc3CCn3cc(C(C)(C)c4ccc(Cl)cc4)nc32)CC1 (stereo not drawn) [Example 117, 2-[1-(4-chlorophenyl)-1-methyl-ethyl]-4-(1-methylpiperidin-4-yloxy)-9,10-dihydro-4H-3,10a-diaza-benzo[f]azulene oxalate]"
4,< 300 nM,"CN1CCC(OC2c3ccccc3CCn3cc(Sc4ccccc4)nc32)CC1 (stereo not drawn) [Example 73, 4-(1-methylpiperidin-4-yloxy)-2-phenylsulfanyl-9,10-dihydro-4H-3,10a-diaza-benzo[f]azulene oxalate]"
5,< 300 nM,"COC(=O)c1c(-c2ccccc2)nc2n1CCc1ccccc1C2OC1CCN(C)CC1 (stereo not drawn) [Example 256, 4-(1-methylpiperidin-4-yloxy)-2-phenyl-9,10-dihydro-4H-3,10a-diaza-benzo[f]azulene-1-carboxylic acid methyl ester]"
6,< 300 nM,"CN1CCC(OC2c3ccccc3CCn3cc(-c4ccco4)nc32)CC1 (stereo not drawn) [Example 24, 2-furan-2-yl-4-(1-methylpiperidin-4-yloxy)-9,10-dihydro-4H-3,10a-diaza-benzo[f]azulene]"
7,< 300 nM,"Cc1nc2n(c1-c1ccccc1)CCc1ccccc1C2OC1CCN(C)CC1 (stereo not drawn) [Example 123, 2-methyl-4-(1-methylpiperidin-4-yloxy)-1-phenyl-9,10-dihydro-4H-3,10a-diaza-benzo[f]azulene oxalate]"
8,< 30 nM,"CN1CCC(OC2c3ccccc3CCn3c2nc(-c2ccccc2Cl)c3C#N)CC1 (stereo not drawn) [Example 272, 2-(2-chlorophenyl)-4-(1-methyl-piperidin-4-yloxy)-9,10-dihydro-4H-3,10a-diaza-benzo[f]azulene-1-carbonitrile oxalate]"
